Entries after “also recorded” stand apart in the source; their conditions may differ. Structures can show the parent of a compound that is named as a salt. Where two headings read alike, the source gives them in different places.
Legend:
[1] = Storage stability of BAPN base; format: physicochemical
[2] = Skin penetration of BAPN base versus BAPN fumarate; format: in vitro ADME; conditions: BAPN base vs BAPN fumarate
[3] = systemic, dogs; cited from earlier work
collagen [4] = conditions: cited from earlier work
lysyl oxidase [5] = assay: Lysyl oxidase activity in granuloma tissue after topical application (Example 4); format: in vivo, rats, Sprague-Dawley
Method: Two groups of rats, four rats in each group, 250 g body weight, Sprague-Dawley males, were implanted subcutaneously with a polyvinylalcohol sponge (Ivalon, Unipoint Labs, New Jersey) in the dorsal region through an incision distal from the placement of the sponge.
A solution of 0.1 ml of β-aminopropionitrile (200 mg BAPN/ml) was applied every 12 hours onto the skin over the implanted sponge for a total of seven days. Then the rats were sacrificed, reactive granuloma tissue excised and used for the determination of the activity of lysyl oxidase.
There were four rats in each group.
Variability is given by standard deviation.
Significance of the results tested by Student's t-test.

[6] = Recovery from urine after administration on skin through hydrophilic bag container (Example 2); format: in vivo, rats
Method: The experimental conditions were similar to those of Example 1 for Group 6. A 0.4 ml solution of 1.1M β-aminopropionitrile fumarate containing 200 mg/ml and 2 μCi of the same ^14 C labeled substance was placed into a hydrophilic bag membrane. This membrane contained 80% water. The container bag was placed onto the shaved skin area of 4 cm^2, covered with impermeable occlusive dressing represented by Blenderm surgical tape (3M, Minnesota). The rats were placed in metabolic cages and at defined time intervals, the urine was collected and the amount of radioactive drug determined.
Time indicates the urine sampling period. Recovery is given in percent of the dose administered into the hydrophilic bag.

lysyl oxidase [7] = conditions: cited from earlier work
scleroderma = conditions: cited from earlier work
[8] = systemic, rats; cited from earlier work
[9] = Topical cytotoxicity of BAPN; format: in vivo
Text: Although the pathogenesis of the above disorders may differ, in every one it was postulated that the physical properties of the scar tissue were affected by abnormal cross-linking of the collagenous component. A variety of methods was proposed and used to alleviate the problems of abnormal reactivity of polymerized scar tissue (Peacock and Van Winkle 1976). […] The ideal method of topical administration would be the noninvasive percutaneous resorption of BAPN painted onto the skin as proposed in this disclosure. […] These findings assured me that topical BAPN is safe, effective and optimal therapeutic regimen to achieve significant interference with maturation of collagenous structure in tissues with an injury.

lysyl oxidase [10] = conditions: single systemic moderate dose; cited from earlier work
human collagen = conditions: in vivo; cited from earlier work
[11] = Percutaneous absorption of BAPN-fumarate, drug recovery in urine (Example 1); format: in vivo, rats, Sprague Dawley
Method: Adult rats, Sprague Dawley strain, were shaved on the dorsum. A 0.1 ml solution of 0.16M β-aminopropionitrile fumarate, containing 30 mg BAPN/ml of phosphate buffer (0.1M, pH 7.2) and for easy detection 2 μCi of ^14 C-β-aminopropionitrile fumarate was painted on the shaved skin area 2×2 cm of a rat. In another rat, the shaved skin was washed first with 2% Ivory soap, in the next group the skin area after painting was covered with occlusive bandage. In another group of rats (Table 1) the drug was administered onto the skin the drug in 60% dimethyl sulfoxide, a solvent known to increase percutaneous absorption. Finally, in the last group (Table 1), the basic solution was administered into a small container made of a hydrogel polymer. This hydrogel is characterized by containing 80% water. It makes good contact with the skin, allows penetration of the drug through the container wall, hydrates the skin under the occlusive dressing, thus enhancing the percutaneous transport.
^14 C--BAPNfumarate, 2 μCi in 30 mg BAPNfumarate/ml, 0.1 ml
*% recovered in 24 hours

[12] = Work of flexion of tenolyzed flexor profundus tendon (Example 5); format: in vivo, White Leghorn chickens
Text: will document the therapeutic effectiveness of direct infusions of β-aminopropionitrile fumarate solution into the dissected peritendinous adhesions in a rooster model of tendon injury.
Adult White Leghorn chickens were sedated with Pentothal, fixed to the operating table and given metacarpal local anesthesia with 1% xylocaine. Following surgical prep of the foot, a tourniquet was applied. Through a mid-lateral incision the sublimus tendon was removed from the long digit of both feet and a 4-0 braided stainless steel wire was passed through the entire length of the remaining profundus tendon to promote injury to the tendon by "scarification". The incision was closed with a continuous nylon suture, 4-0. Both feet were then incorporated in a plaster of Paris dressing with the feet in a functional position permitting the animals to walk while in the plaster.
Three weeks later the animals were prepared for surgery as above and the original incision was opened. A complete tenolysis was performed freeing the profundus tendon from surrounding fibrotic adhesions. […]
After 5 days of BAPN application the animals were sacrificed, the plaster dressings removed, and the legs amputated. […] The leg was then mounted in an Instron Tensiometer and measured traction was applied to the flexor profundus tendon at a rate of 2.5 cm/min while the flexion of the three digital joints was measured. […]

[13] = Acute toxicity, LD50 (Example 3); design: species or system CD-1 mice; conditions: mouse, in vivo, 24-hour observation
Method: The determination of lethal dose, killing within a certain time after the administration of the tested drug 50% of the exposed animals, is a standard method of evaluation of the toxicity of a drug.
A total of 40 male CD-1 mice with a body weight of 20 g were injected either intraperitoneally with β-aminopropionitrile fumarate or the drug was applied in a solution onto the shaved dorsal aspect of the skin. Four dosage levels spaced in geometric progression were evaluated using five animals for each dose.

collagen [14] = conditions: cited from earlier work; remark: listed apart in the source
monoamine oxidase (MAO) = conditions: cited from earlier work
lysyl oxidase [15] = conditions: isoniazid with BAPN; cited from earlier work

N#CCCN [BAPN base]
Stability under storage [1]: unstable under storage, undergoing hydrolysis forming ammonia and toxic acrylonitrile | Skin penetration relative to BAPN fumarate [2]: approximately five times faster | Skin penetration relative to BAPN fumarate ([2]; listed as BAPN-base): higher penetration

N#CCCN [BAPN, β-aminopropionitrile]
Side effects [3]: undesirable side effects | Tendon gliding / joint stiffness [3]: significantly improve the tendon gliding fraction or reduce stiffness | General toxicity at lathyrogenic dosages (collagen [4]; systemic, animals): the animals stop growing, lose body weight and lower their food intake | Blocking the polymerization of collagen (collagen [4]; various animal models of fibrotic lesion): very effective | Inhibition of lysyl oxidase in granuloma tissue (lysyl oxidase [5]; painted onto skin over implanted sponge): significant inhibition of the enzyme activity in the lesion; also recorded: effectively inhibits lysyl oxidase in granuloma tissue | Recovery in Urine (In % of the Total Dose) ([6]; 4 hours): 0.5% | Recovery in Urine (In % of the Total Dose) ([6]; 8 hours): 1.01% | Recovery in Urine (In % of the Total Dose) ([6]; 12 hours): 2.37% | Recovery in Urine (In % of the Total Dose) ([6]; 24 hours): 5.40% | Recovery in Urine (In % of the Total Dose) ([6]; 72 hours): 9.9% | Recovery in Urine (In % of the Total Dose) ([6]; 96 hours): 15.2% | Recovery in Urine (In % of the Total Dose) ([6]; 120 hours): 22.5% | Concentration inhibiting lysyl oxidase (lysyl oxidase [7]): 10^-7 M | Effectiveness as lathyrogenic agent on lysyl oxidase (lysyl oxidase [7]): the most effective | Reversibility of lysyl oxidase inhibition (lysyl oxidase [7]): irreversible | Toxic side effects, short-term treatment (scleroderma; 2 g/day, short-term): no toxic side effects were noted | Adverse reactions, longer courses (scleroderma; longer courses of treatment): prohibitive reactions, such as allergic skin rash and hemolytic anemia | Side effects [8]: undesirable side effects | Tendon gliding / joint stiffness [8]: significantly improve the tendon gliding fraction or reduce stiffness | Topical cytotoxicity, morphological or ultrastructural [9]: no morphological or ultrastructural evidence of topical cytotoxicity is found | Time to recovery of lysyl oxidase activity in granuloma tissue (lysyl oxidase [10]): 6 to 12 h | Covalent bonding of human collagen / clinical benefit (human collagen): decreased covalent bonding of human collagen with significant clinical benefit was demonstrated | Hypersensitivity (human collagen): a significant number of the patients exhibited hypersensitivity to the agent

N#CCCN [BAPN-fumarate, β-aminopropionitrile fumarate]
Lysyl Oxidase Activity in the granuloma tissue (lysyl oxidase [5]; topical, 0.1 ml of 200 mg/ml every 12 hours for seven days, control 36.2 ± 7.1, P < 0.001, standard deviation): 1.8 ± 0.3 DPM/mg protein | Increase of delivery, Group 6 compared with Group 1 ([11]; hydrophilic container with occlusive dressing vs phosphate buffer on intact skin): ~40 times | Drug Recovery in the Urine, % Recovered in 6 hours ([11]; in phosphate buffer in 60% DMSO): 11.66% | Drug Recovery in the Urine, % Recovered in 6 hours ([11]; in phosphate buffer in 60% DMSO, skin washed in 2% Ivory soap): 10.10% | Drug Recovery in the Urine, % Recovered in 6 hours ([11]; in phosphate buffer on intact skin): 0.97% | Drug Recovery in the Urine, % Recovered in 6 hours ([11]; in phosphate buffer, skin washed with 2% Ivory soap): 2.17% | Drug Recovery in the Urine, % Recovered in 6 hours ([11]; in phosphate buffer, skin washed with 2% Ivory soap, occlusive bandage): 10.56% | Drug Recovery in the Urine, % recovered in 24 hours ([11]; in phosphate buffer, skin washed with 2% Ivory soap, hydrophilic container, occlusive bandage, 24 hours): 35.00% | Release / penetration over time ([6]; 120 hours of observation): continuous at the constant rate | Tendon gliding ([12]; topical infusion): glided more easily; much lower force was needed to flex the finger | Work of Flexion (Mean) ([12]; topical infusion every 12 hours for 5 days, 300 mg/ml, SD 4.25, saline control 44.8 (SD 9.9), P < 0.01): 13.10 gm/degree | LD50 at 24 h ([13]; ip, intraperitoneally): 3000 mg/kg | LD50 at 24 h ([13]; topical or ocular, percutaneously): 23100 mg/kg

CC(C)(S)[C@@H](N)C(=O)O [D-penicillamine]
Direct inhibition of lysyl oxidase (lysyl oxidase [7]): direct inhibition of lysyl oxidase by D-penicillamine was demonstrated | Changes in metal content in tissues and fluids (collagen [14]; after treatment): Striking changes in the metal content in various tissues and fluids | Acute hypersensitivity reactions (collagen [14]; clinical studies, systemic): high incidence of acute hypersensitivity reactions | Decrease of structural stability of collagen (collagen [14]; systemic): well-documented

N#CCN [aminoacetonitrile]
Effectiveness as lathyrogenic agent on lysyl oxidase (lysyl oxidase [7]): the most effective

NNC(=O)c1ccncc1 [isoniazid]
Monoamine oxidase (MAO) inhibition (monoamine oxidase (MAO)): weak lysyl oxidase and MAO inhibitor | Lathyritic effect of BAPN in combination (lysyl oxidase [15]): potentiate the lathyritic effects of BAPN | Lysyl oxidase inhibition (lysyl oxidase [7]): weak lysyl oxidase and MAO inhibitor

C#CCN(C)Cc1ccccc1 [pargyline]
Monoamine oxidase (MAO) inhibition (monoamine oxidase (MAO)): monoamine oxidase (MAO) inhibitor

From patent US4485088A, “Method of treatment of fibrotic lesions by topical administration of lathyrogenic drugs” (Bio-Products, Inc., priority 1982, dated 1984)
